Results as given in PubChem BioAssay AID2060497 (Molecular Pharmacology Branch, DTP, NCI, 2025).

Tested on: 317291-083-R-J1-PDC complex spheroids, viability
Assay: Anticancer human tumor 317291-083-R-J1-PDC patient-derived soft tissue sarcoma cell line growth inhibition [GQUAD]
Settings: for IC50: curve of first compound; for viability, T/C: stronger effect = lower value
In short: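 Viability of tumor cells grown as complex spheroids with endothelial and stromal cells, exposed to drug combinations. Top concentration at or near clinical Cmax (else 10 microM), diluted in half-log increments.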

[1] = second compound 0.0316 µM, first compound 0.0316 µM
[2] = second compound 0.0316 µM, first compound 0.1 µM
[3] = second compound 0.0316 µM, first compound 0.316 µM
[4] = second compound 0.0316 µM, first compound 1 µM
[5] = second compound 0.0316 µM, first compound 3.16 µM
[6] = second compound 0.0316 µM, first compound 10 µM
[7] = second compound 0.1 µM, first compound 0.0316 µM
[8] = second compound 0.1 µM, first compound 0.1 µM
[9] = second compound 0.1 µM, first compound 0.316 µM
[10] = second compound 0.1 µM, first compound 1 µM
[11] = second compound 0.1 µM, first compound 3.16 µM
[12] = second compound 0.1 µM, first compound 10 µM
[13] = second compound 0.316 µM, first compound 0.0316 µM
[14] = second compound 0.316 µM, first compound 0.1 µM
[15] = second compound 0.316 µM, first compound 0.316 µM
[16] = second compound 0.316 µM, first compound 1 µM
[17] = second compound 0.316 µM, first compound 3.16 µM
[18] = second compound 0.316 µM, first compound 10 µM
[19] = second compound 1 µM, first compound 0.0316 µM
[20] = second compound 1 µM, first compound 0.1 µM
[21] = second compound 1 µM, first compound 0.316 µM
[22] = second compound 1 µM, first compound 1 µM
[23] = second compound 1 µM, first compound 3.16 µM
[24] = second compound 1 µM, first compound 10 µM
[25] = second compound 3.16 µM, first compound 0.0316 µM
[26] = second compound 3.16 µM, first compound 0.1 µM
[27] = second compound 3.16 µM, first compound 0.316 µM
[28] = second compound 3.16 µM, first compound 1 µM
[29] = second compound 3.16 µM, first compound 3.16 µM
[30] = second compound 3.16 µM, first compound 10 µM
[31] = second compound 10 µM, first compound 0.0316 µM
[32] = second compound 10 µM, first compound 0.1 µM
[33] = second compound 10 µM, first compound 0.316 µM
[34] = second compound 10 µM, first compound 1 µM
[35] = second compound 10 µM, first compound 3.16 µM
[36] = second compound 10 µM, first compound 10 µM
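Note: spheroids exposed to compounds for one week before readout.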
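Throughout, for viability, T/C: percent viability relative to DMSO vehicle wells taken as 100%.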

`COc1cc(C2c3cc4c(cc3C(OC3OC5COC(C)OC5C(O)C3O)C3COC(=O)C23)OCO4)cc(OC)c1O` (centres undefined) + Cc1[nH]c2ccc(F)cc2c1-c1nc2c3cccnc3c3ncccc3c2[nH]1 showed an IC50 (second compound 0.0316 µM) of 432 nM, an IC50 (second compound 0.1 µM) of 276 nM and an IC50 (second compound 0.316 µM) of 260 nM. It also gave an IC50 (second compound 1 µM) of 260 nM, an IC50 (second compound 3.16 µM) of 192 nM and an IC50 (second compound 10 µM) of 222 nM. For the same molecule, the viability, T/C [1] was 103%, the viability, T/C [2] was 93% and the viability, T/C [3] was 59.5%. The viability, T/C [4] was 25.2%, the viability, T/C [5] was 17.9% and the viability, T/C [6] was 16.5%. The viability, T/C [7] was 96.2%, the viability, T/C [8] was 102% and the viability, T/C [9] was 43.5%. For the same molecule, the viability, T/C [10] was 28.3%, the viability, T/C [11] was 17.6% and the viability, T/C [12] was 9.83%. The viability, T/C [13] was 113%, the viability, T/C [14] was 92.7% and the viability, T/C [15] was 40.6%. The viability, T/C [16] was 22.5%, the viability, T/C [17] was 14.5% and the viability, T/C [18] was 18.4%. It also gave a viability, T/C [19] of 84.7%, a viability, T/C [20] of 94.5% and a viability, T/C [21] of 41.8%. The viability, T/C [22] was 20.2%, the viability, T/C [23] was 13.6% and the viability, T/C [24] was 13.2%. For the same molecule, the viability, T/C [25] was 80.8%, the viability, T/C [26] was 70% and the viability, T/C [27] was 34.5%. It also gave a viability, T/C [28] of 16.7%, a viability, T/C [29] of 16.1% and a viability, T/C [30] of 10%. For the same molecule, the viability, T/C [31] was 73.1%, the viability, T/C [32] was 57.6% and the viability, T/C [33] was 47.7%. The viability, T/C [34] was 17.7%, the viability, T/C [35] was 11.9% and the viability, T/C [36] was 16.9%.

`CC1COCCN1c1cc(C2(S(C)(=N)=O)CC2)nc(-c2ccnc3[nH]ccc23)n1` (centres undefined) + CN(C)c1ccc(Nc2c3ccc(NC(=O)CCN4CCCC4)cc3nc3cc(NC(=O)CCN4CCCC4)ccc23)cc1 was tested, and the IC50 (second compound 0.0316 µM) was 956 nM, the IC50 (second compound 0.1 µM) was 1150 nM and the IC50 (second compound 0.316 µM) was 432 nM. For the same molecule, the IC50 (second compound 1 µM) was 77.3 nM, the IC50 (second compound 3.16 µM) was less than 31.6 nM and the IC50 (second compound 10 µM) was less than 31.6 nM. The viability, T/C [1] was 123%, the viability, T/C [2] was 111% and the viability, T/C [3] was 81.6%. For the same molecule, the viability, T/C [4] was 49.3%, the viability, T/C [5] was 25.8% and the viability, T/C [6] was 15.9%. For the same molecule, the viability, T/C [7] was 141%, the viability, T/C [8] was 105% and the viability, T/C [9] was 82.6%. For the same molecule, the viability, T/C [10] was 54.6%, the viability, T/C [11] was 22.2% and the viability, T/C [12] was 17.1%. It also gave a viability, T/C [13] of 84.9%, a viability, T/C [14] of 79.9% and a viability, T/C [15] of 55.7%. For the same molecule, the viability, T/C [16] was 32%, the viability, T/C [17] was 21.6% and the viability, T/C [18] was 16.8%. It also gave a viability, T/C [19] of 56.6%, a viability, T/C [20] of 44.1% and a viability, T/C [21] of 41.9%. It also gave a viability, T/C [22] of 18.3%, a viability, T/C [23] of 15.2% and a viability, T/C [24] of 7.51%. The viability, T/C [25] was 38%, the viability, T/C [26] was 24.3% and the viability, T/C [27] was 37.5%. The viability, T/C [28] was 12.3%, the viability, T/C [29] was 8.02% and the viability, T/C [30] was 7.55%. It also gave a viability, T/C [31] of 3.33%, a viability, T/C [32] of 5.73% and a viability, T/C [33] of 7.2%. It also gave a viability, T/C [34] of 6.92%, a viability, T/C [35] of 3.25% and a viability, T/C [36] of 1.68%.
